Source: patent US20230048576A1, “COMPOUNDS FOR THE TREATMENT OF NEUROPATHIC PAIN” (City of Hope, priority 2019, published 2023)
“And” between values parts separate entries of the source, which are not always exact repeats. Equal values may be shown once. “Also recorded” adds a separate entry of the source. Marks after values point to notes of the source that are not given here.

Key:
[1] = Stability in acidic environment (simulated gastric fluid test), precipitation under polarized light microscope; format: physicochemical
Protocol: To test the stability in the acidic environment (simulated gastric fluid test) of 5 and 10 mg/ml of LR-90 in 20% HPβCD in pH 8.0 buffer, the two concentrations were added into the equal volume of pH 1.2 buffer, mixed completely, and then observed under a polarized light microscope.

[2] = system: Taxol-induced neuropathic pain; assay: Von Frey test (mechanical allodynia) in Taxol induced model of neuropathic pain; format: in vivo, rat
Protocol: Neuropathic pain was induced by intraperitoneal administration of Taxol at a dose level of 6 mg/kg on study days 0-6 and 12 mg/kg on study days 7-12. Following injection of Taxol animals experienced pain as was assessed using the von Frey test. The development of neuropathic pain was confirmed by measuring mechanical allodynia (Von Frey test) on study day 13 (for inclusion) and on study day 14 (1 hour and 2 hour post dosing) and 24 hour post first dosing.
All data are presented as means±SEM. Each treatment group was compared to the Vehicle group using Two way ANOVA (for VF) followed by Tukey post-test (GraphPad). Vehicle group is compared to naïve group using T-test. A p value<0.05 is considered to represent a significant difference.
The response to tactile allodynia was evaluated using the Von Frey apparatus (Touch Test®). The rat was placed in an enclosure and positioned on a metal mesh surface, but allowed to move freely. A set of dull monofilaments provide an increasing force was applied on the animal plantar surface of the paw. The lowest force requires for animal paw withdrawal was recorded. Low force values recorded in this test indicate a painful state.

## CC(C)(Oc1ccc(NC(=O)Nc2ccc(Cc3ccc(NC(=O)Nc4ccc(OC(C)(C)C(=O)O)cc4)c(Cl)c3)cc2Cl)cc1)C(=O)O [LR-90, methylene bis[4,4′-(2-chlorophenylureidophenoxyisobutyric acid)]]
[1]; 5 mg/ml LR-90 in 20% HPβCD in pH 8.0 buffer, after an hour
  precipitation after mixing with equal volume of pH 1.2 buffer: no precipitation
[1]; 10 mg/ml LR-90 in 20% HPβCD in pH 8.0 buffer, about 60 min
  precipitation after mixing with equal volume of pH 1.2 buffer: Very little precipitation
[2]; 25 mg/kg
  effect on the sensitivity of the treated animals to mechanical stimulation: No significant effect
[2]; 25 mg/kg PO, Group 6, Baseline
  mean Von Frey force required for withdrawal: 60.00 g
[2]; 25 mg/kg PO, Group 6, Day 13 pre dosing
  mean Von Frey force required for withdrawal: 9.81 g
[2]; 25 mg/kg PO, Group 6, Day 14 1 hour post dosing
  mean Von Frey force required for withdrawal: 21.88 g
[2]; 25 mg/kg PO, Group 6, Day 14 2 hours post dosing
  mean Von Frey force required for withdrawal: 17.31 g
[2]; 25 mg/kg PO, Group 6, Day 15 24 hours post dosing
  mean Von Frey force required for withdrawal: 14.13 g
[2]; 50 mg/kg
  effect on the sensitivity of the treated animals to mechanical stimulation: No significant effect
[2]; 50 mg/kg PO, Group 5, Baseline
  mean Von Frey force required for withdrawal: 60.00 g
[2]; 50 mg/kg PO, Group 5, Day 13 pre dosing
  mean Von Frey force required for withdrawal: 9.81 g
[2]; 50 mg/kg PO, Group 5, Day 14 1 hour post dosing
  mean Von Frey force required for withdrawal: 17.38 g
[2]; 50 mg/kg PO, Group 5, Day 14 2 hours post dosing
  mean Von Frey force required for withdrawal: 22.13 g
[2]; 50 mg/kg PO, Group 5, Day 15 24 hours post dosing
  mean Von Frey force required for withdrawal: 16.75 g
[2]; 100 mg/kg PO, Group 4, Baseline
  mean Von Frey force required for withdrawal: 57.88 g
[2]; 100 mg/kg PO, Group 4, Day 13 pre dosing
  mean Von Frey force required for withdrawal: 10.06 g
[2]; 100 mg/kg PO, Group 4, Day 14 1 hour post dosing
  mean Von Frey force required for withdrawal: 34.69**** g
[2]; 100 mg/kg PO, Group 4, Day 14 2 hours post dosing
  mean Von Frey force required for withdrawal: 32.56±7.56 g and 32.56*** g
[2]; 100 mg/kg PO, Group 4, Day 15 24 hours post dosing
  mean Von Frey force required for withdrawal: 26.25 g
[2]; 100 mg/kg, Group 4, 1 hour and 2 hour post dosing on study day 14
  effect on neuropathic pain compared to the vehicle group (Von Frey test): statistically significantly reduced the neuropathic pain; also recorded: significantly effective in reducing neuropathic pain
